# Read-outs that look alike come from different tables or passages of the source.
# Columns and labels:
# cocaine-trained rats [1] = conditions: cited from earlier work
# squirrel monkeys = conditions: cited from earlier work
# [2] = system: acetic acid induced writhing in mice; test: Acetic acid writhing assay in mice; format: in vivo; conditions: for Mean Number of writhes: in combination with Diclofenac (3 mg/kg), 30 minutes prior to i.p. 0.5% acetic acid, counted 0-20 minutes
# cocaine-trained rats [3] = conditions: doses of up to 3.2 mg/kg/injection; three-day substitution tests and progressive ratio tests; cited from earlier work
compound,measurement,setting,value
COC(=O)[C@H]1[C@@H](OC(=O)c2ccccc2)C[C@@H]2CC[C@H]1N2C [cocaine],progressive ratio breakpoint,cocaine-trained rats [1]; maintenance dose 0.56 mg/kg/infusion,128 responses
COc1ccc2c3c1O[C@H]1C(=O)CC[C@H]4[C@@H](C2)N(C)CC[C@]314 [hydrocodone],progressive ratio breakpoint,cocaine-trained rats [1]; 0.18 mg/kg/infusion,114
"CN1CC[C@]23c4c5ccc(O)c4O[C@H]2[C@@H](O)C=C[C@H]3[C@H]1C5 [morphine, reference compound]",injection lever responses (% ILR),squirrel monkeys; 0.03 mg/kg/injection IV,100%
COc1ccc2c3c1O[C@H]1C(=O)CC[C@@]4(O)[C@@H](C2)N(C)CC[C@]314 [oxycodone],mean progressive ratio breakpoint,cocaine-trained rats [1]; 0.01 mg/kg/infusion,56
same,mean progressive ratio breakpoint,cocaine-trained rats [1]; 0.032 mg/kg/infusion,79
same,injection lever responses (% ILR),squirrel monkeys; 0.1 mg/kg/injection IV,100%
COCCOCCOCCOCCO[C@H]1CC[C@@]2(O)[C@H]3Cc4ccc(OC)c5c4[C@@]2(CCN3C)[C@H]1O5 [α-6-mPEG4-O-hydroxycodone],Mean Number of writhes,[2]; dose 5 mg/kg oral,13
same,Mean Number of writhes,[2]; dose 10 mg/kg oral,4.8
COCCOCCOCCOCCOCCO[C@H]1CC[C@@]2(O)[C@H]3Cc4ccc(OC)c5c4[C@@]2(CCN3C)[C@H]1O5 [α-6-mPEG5-O-hydroxycodone],"reduction of writhings, combination versus each compound individually (FIG. 2)",[2]; combination with diclofenac (3 mg/kg),measured reduction of writhings that is greater than the number of writhings when each compound is individually administered
same,Mean Number of writhes,[2]; dose 5 mg/kg oral,7.2
same,Mean Number of writhes,[2]; dose 10 mg/kg oral,1.4
COCCOCCOCCOCCOCCOCCO[C@H]1CC[C@@]2(O)[C@H]3Cc4ccc(OC)c5c4[C@@]2(CCN3C)[C@H]1O5 [α-6-mPEG6-O-hydroxycodone],Mean Number of writhes,[2]; dose 5 mg/kg oral,6.2
same,Mean Number of writhes,[2]; dose 10 mg/kg oral,4
same,reinforcing properties in progressive ratio tests,cocaine-trained rats [1]; behaved like saline,no reinforcing properties
same,progressive ratio breakpoints compared with saline,cocaine-trained rats [1]; five out of six tested doses,lower than that produced by saline
same,injection lever responses (% ILR),squirrel monkeys; 0.32 mg/kg IV,22%
same,injection lever responses (% ILR),squirrel monkeys; 1.0 mg/kg IV,39%
same,injection lever responses (% ILR),squirrel monkeys; 3.2 mg/kg IV,50%
same,"exclusive injection lever responding, number of subjects","squirrel monkeys; highest dose tested, 3.2 mg/kg/injection, 3-4 subjects",only two subjects
same,reinforcing strength,squirrel monkeys; highest doses tested of 3.2 mg/kg/injection,marked reduction in reinforcing strength
same,potency in self-administration relative to oxycodone and morphine,squirrel monkeys; monkeys,significantly lower potency than oxycodone and morphine
same,behavioral evidence of positive reinforcement,cocaine-trained rats [3],no behavioral evidence of positive reinforcement

# Reference: patent US10525054B2 (dated 2020)
